We go through 12 molecules from patent publication US11352353B2, “Heterocyclic compound serving as FGFR4 inhibitor” (Hangzhou Innogate Pharma Co., Ltd., priority 2016, dated 2022).

SMILES strings stand for the structures.

The target in assay [1] is FGFR1 (Homo sapiens, UniProt P11362). Description: FGFR1 kinase activity inhibition (Caliper mobility shift assay). The format is biochemical. To be noted: FAM-labeled peptide and ATP, 28° C. 30-60 minutes, read-out: FGFR kinase inhibition (IC50, nM) FGFR1. The procedure:
(§1) 1. FGFR1 and FGFR4 Kinase Activity Inhibition Experiments
(§2) The FGFR1, FGFR2, FGFR3 and FGFR4 protein kinase activities were determined using the Caliper mobility shift assay. The compound was dissolved in DMSO and diluted with kinase buffer, and 5 µL of a 5-fold final concentration of the compound (10% DMSO) was added to a 384-well plate. After adding 10 µL of 2.5-fold enzyme (FGFR1 and FGFR4, respectively) solution, incubate for 10 minutes at room temperature, and then add 10 µL of a (FAM-labeled peptide and ATP) solution. Incubate at 28° C. for 30-60 minutes and stop the reaction by adding 25 µL stop solution. Conversion rate data was read on a Caliper EZ Reader II (Caliper Life Sciences). The conversion rate was converted into inhibition rate data (% inhibition rate=(max−sample conversion rate)/(max−min)*100). Wherein max is the conversion of the DMSO control and min is the conversion of the enzyme-free control. Plot the curve with the compound concentration and inhibition rate on the horizontal and vertical coordinates, and fit the curve and calculate the IC50 using XLFit excel add-in version 4.3.1 software.

The subject of assay [2] is Huh7 tumor cells. Description: Inhibition of Huh-7 tumor cell proliferation (CellTiter Glo). The format is cell-based. To be noted: Homo sapiens, 72 or 168 hours. As to the method:
2. Compound Inhibition Test on Huh-7 Tumor Cell Proliferation
The Huh7 cell suspension was adjusted to 5×10e4/mL or 2×10e4/mL with DMEM+2 Mm Glutamine+10% FBS medium. A 100 μL cell suspension was added to each well in a 96-well cell culture plate at a final cell concentration of 5000 cells/well (72 hours) or 2000 cells/well (168 hours). The test compound was dissolved in DMSO as a 10 mM stock solution. Compounds at a final concentration of 200× were prepared using stock solutions and DMSO, and 3× serial dilutions were prepared and then diluted 20-fold with each medium. Finally, 10 μL of the corresponding 10-fold solution was added to each well of each cell, and each drug concentration was single-well. The final concentrations of each compound were 3000 nM, 1000 nM, 333.3 nM, 111.1 nM, 37.04 nM, 12.35 nM, 4.12 nM, 1.37 nM, and the final concentration of DMSO per well was 0.5%. Incubate for 72 or 168 hours in a 37° C., 5% CO2 incubator. After 72 or 168 hours of drug treatment, according to the CTG instructions, add 100 µL CellTiter Glo detection reagent per well, pre-melt and equilibrate to room temperature CTG solution, mix with a microplate shaker for 2 minutes, and leave at room temperature for 10 minutes. The chemiluminescence signal value was then measured using an EnSpire plate reader. Cell survival rate was calculated using formula: (Vsample−Vblank)/(Vvehicle control−Vblank)×100%. Vsample is the reading of the drug treatment group, Vvehicle control is the average value of the solvent control group, and Vblank is the average value of the blank control well. The S-type dose-survival curve was plotted and the IC50 values were calculated using the GraphPad Prism 5.0 software using a non-linear regression model.
In general terms: In ATP-based viability assays light output follows the ATP content of the culture.

In assay [3] the target is FGFR4 (Homo sapiens, UniProt P22455). Description: FGFR4 kinase activity inhibition (Caliper mobility shift assay). The assay is classed as biochemical. To be noted: FAM-labeled peptide and ATP, 28° C. 30-60 minutes, read-out: FGFR kinase inhibition (IC50, nM) FGFR4. The procedure:
as §1, §2

Chain of FGFR4 (P22455 22-802): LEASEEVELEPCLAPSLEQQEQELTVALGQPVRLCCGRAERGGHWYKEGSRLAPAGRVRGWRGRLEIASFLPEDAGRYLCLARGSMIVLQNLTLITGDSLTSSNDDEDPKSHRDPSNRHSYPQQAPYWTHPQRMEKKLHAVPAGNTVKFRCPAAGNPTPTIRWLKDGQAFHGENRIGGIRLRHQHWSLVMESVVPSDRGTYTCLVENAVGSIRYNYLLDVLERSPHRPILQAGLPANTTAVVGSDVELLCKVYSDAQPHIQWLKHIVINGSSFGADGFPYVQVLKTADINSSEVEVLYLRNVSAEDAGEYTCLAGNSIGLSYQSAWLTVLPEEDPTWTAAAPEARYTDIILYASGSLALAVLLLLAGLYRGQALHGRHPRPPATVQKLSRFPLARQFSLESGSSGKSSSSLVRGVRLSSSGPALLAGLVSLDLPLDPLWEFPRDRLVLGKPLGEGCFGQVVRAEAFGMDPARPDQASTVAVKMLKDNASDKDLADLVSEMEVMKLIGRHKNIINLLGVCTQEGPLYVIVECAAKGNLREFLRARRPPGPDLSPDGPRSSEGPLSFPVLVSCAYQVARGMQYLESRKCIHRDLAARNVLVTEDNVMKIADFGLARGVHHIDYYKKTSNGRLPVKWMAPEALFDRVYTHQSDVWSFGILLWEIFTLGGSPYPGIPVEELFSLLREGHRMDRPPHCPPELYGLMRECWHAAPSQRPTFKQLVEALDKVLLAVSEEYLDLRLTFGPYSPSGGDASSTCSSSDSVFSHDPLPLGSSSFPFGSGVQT
Chain of FGFR1 (P11362 22-822): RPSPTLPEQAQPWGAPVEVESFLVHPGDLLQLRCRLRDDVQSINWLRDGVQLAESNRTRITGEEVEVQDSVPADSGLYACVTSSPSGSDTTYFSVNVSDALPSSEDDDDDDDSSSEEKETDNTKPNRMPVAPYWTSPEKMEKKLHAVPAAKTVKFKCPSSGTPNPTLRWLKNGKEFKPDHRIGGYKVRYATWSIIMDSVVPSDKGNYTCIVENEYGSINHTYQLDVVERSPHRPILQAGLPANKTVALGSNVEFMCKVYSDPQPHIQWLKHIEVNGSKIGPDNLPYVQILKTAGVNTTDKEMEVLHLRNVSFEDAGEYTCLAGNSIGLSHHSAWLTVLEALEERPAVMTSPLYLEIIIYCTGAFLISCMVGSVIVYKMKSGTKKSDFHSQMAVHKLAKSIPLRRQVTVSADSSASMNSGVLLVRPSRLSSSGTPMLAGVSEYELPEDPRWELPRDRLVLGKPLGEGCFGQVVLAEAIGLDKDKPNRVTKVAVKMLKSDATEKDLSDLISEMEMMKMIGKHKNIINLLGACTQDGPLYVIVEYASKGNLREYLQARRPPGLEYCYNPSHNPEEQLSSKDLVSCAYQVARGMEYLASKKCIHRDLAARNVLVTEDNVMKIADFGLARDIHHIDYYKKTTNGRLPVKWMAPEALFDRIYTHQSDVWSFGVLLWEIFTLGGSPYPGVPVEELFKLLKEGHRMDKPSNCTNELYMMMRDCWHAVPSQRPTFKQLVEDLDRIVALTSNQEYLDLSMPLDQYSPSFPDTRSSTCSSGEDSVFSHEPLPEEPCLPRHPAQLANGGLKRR

Turning to `CN1CCN(Cc2cc3c(nc2C=O)N(C(=O)Nc2cc(OC4CC4)c(C#N)cn2)CCC3)C(=O)C1` [Compound 1], the IC50 (commonly the point on the concentration scale where inhibition reaches its midpoint) in assay [1] was more than 10000 nM; in assay [2], less than 50 nM.
Consider `COC1CCC(Oc2cc(NC(=O)N3CCCc4cc(CN5CCN(C)CC5=O)c(C=O)nc43)ncc2C#N)CC1` (stereo not drawn) [Compound 2], for which the figures for the IC50 in assay [1] and in assay [2] were more than 10000 nM and less than 50 nM, respectively.
`CO[C@H]1CC[C@@H](Nc2cc(NC(=O)N3CCCc4cc(CN5CCN(C)CC5=O)c(C=O)nc43)ncc2C#N)CC1` [Compound 3] came in with a concentration for half-maximal inhibition (IC50) in assay [2] of less than 50 nM.
As for `N#Cc1cnc(NC(=O)N2CCCc3cc(CN4CCN(C5CC5)CC4=O)c(C=O)nc32)cc1OC1CC1` [Compound 4], the IC50 was less than 20 nM in assay [3] and less than 500 nM in assay [2].
In turn, `CN1CCCN(Cc2cc3c(nc2C=O)N(C(=O)Nc2cc(OC4CC4)c(C#N)cn2)CCC3)C(=O)C1` [Compound 5] came in with an IC50 in assay [2] of less than 50 nM.
On the same count and under the same terms, to `N#Cc1cnc(NC(=O)N2CCCc3cc(CN4CC5CCCN5CC4=O)c(C=O)nc32)cc1OC1CC1` (stereo not drawn) [Compound 6] belongs less than 500 nM; to `COCC1(Oc2cc(NC(=O)N3CCCc4cc(CN5CCN(C)CC5=O)c(C=O)nc43)ncc2C#N)CC1` [Compound 7], less than 500 nM.
With `COC1CC(Nc2cc(NC(=O)N3CCCc4cc(CN5CCN(C)CC5=O)c(C=O)nc43)ncc2C#N)C1` (stereo not drawn) [Compound 8], the IC50 in assay [3] is less than 5 nM.
Take `COCCNc1cc(NC(=O)N2CCCc3cc(CN4CCCN(C)CC4=O)c(C=O)nc32)ncc1C#N` [Compound 9]: in assay [3], the IC50 was less than 5 nM.
Consider `COCCNc1cc(NC(=O)N2CCCc3cc(CN4CCN5CCCC5C4=O)c(C=O)nc32)ncc1C#N` (stereo not drawn) [Compound 10], for which the IC50 in assay [3] was less than 5 nM.
Consider `COCCNc1cc(NC(=O)N2CCCc3cc(CN4CCN(C5CN(C)C5)CC4=O)c(C=O)nc32)ncc1C#N` [Compound 11], for which the IC50 in assay [3] is less than 5 nM.
`CN1CCN(Cc2cc3c(nc2C=O)N(C(=O)Nc2cc(NC4CC4)c(C#N)cn2)CCC3)C(=O)C1` [Compound 12]: in assay [3], the IC50 was less than 5 nM.
